In brackets after ≈: the same amount, converted by molar mass. Each block holds one compound with its values, some of them ahead of it.
What was measured:
Assay type in all cases: physicochemical
[1] = Determination of apparent solubility (shake flask, 37 °C, 12 h, HPLC external standard); conditions: for Apparent solubility / solubility at 12 h: 37 °C ± 0.5 °C, 12h; for solubility at 12 h: thermodynamic from solid
Description: Example 11: Determination of Apparent solubility
The apparent solubility of the amorphous form of Apremilast in the present invention and the Apremilast crystal form is compared.
The test objects were as follows: the amorphous form of Apremilast obtained in Example 1 of the present invention; the crystal Form B of Apremilast was prepared according to the patent CN102702070 Example 12. […]
Preparation of diluents of different pH: • (1) pH=1.0 diluent: Add 9 mL of concentrated HCl to a 1000 mL of volumetric flask, diluted to the volume with water. • (2) pH=2.0 diluent: Solution A: Transfer 16.6 mL of phosphoric acid to a 100 mL volumetric flask, dilute to the volume with water, shake to mix. Solution B: Weigh and transfer 71.63g of […] phosphate to a 1000 mL of volumetric flask, dilute to the volume with water, dissolve and mix well. […]
Example 51: Determination of Apparent solubility
The test objects were as follows: the solid dispersion of amorphous Apremilast obtained in Example 23 of the present invention; the physical mixture comprising Apremilast crystalline (Apremilast crystal Form B, sorbitol and polyacrylic resin Eudragit L100 were mixed physically, and the weight ratio is 1:1:1, and the crystal Form B of Apremilast was prepared according to the patent CN102702070 Example 12.).

[2] = Accelerated stability test (related substances by HPLC, crystallinity by XRPD); conditions: for Related substances (Total impurities %) / crystalline (XRPD): Temperature: 40°C±2°C, Humidity: 75%±5%
Description: Example 10: Accelerated stability test of the amorphous Apremilast
Material: amorphous Apremilsat was prepared according to the method of Example 1.
(§1) Experiment conditions: temperature 40 °C ± 2 °C, humidity 75% ± 5%
The substance was detected by HPLC. […]

[3] = Impact factor test (high temperature / high humidity stress stability; related substances by HPLC, crystallinity by XRPD)
Description: Example 9: Impact factor test of the amorphous Apremilast
Material: Amorphous Apremilast was prepared according to the method of Example 1
as §1
The substance was detected by HPLC.
Example 46: Impact factor test of the solid dispersion of amorphous Apremilast and hydroxypropylcellulose SSL and povidone K30
Material: the solid dispersion of amorphous Apremilast and hydroxypropylcellulose SSL and povidone K30 was prepared according to the method of Example 12
Experiment conditions: temperature 40 °C ± 2 °C, humidity 75% ± 5% The substance was detected by HPLC.
Example 49: Impact factor test of the solid dispersion of amorphous Apremilast, sorbitol and polyacrylic resin Eudragit L100 […]

[4] = accelerated test conditions after 6 months
[5] = Temperature 40 °C ± 2 °C, 0 day
[6] = Temperature 40 °C ± 2 °C, 5 days
[7] = Temperature 40 °C ± 2 °C, 10 days
[8] = Temperature 60 °C ± 2 °C, 0 day
[9] = Temperature 60 °C ± 2 °C, 5 days
[10] = Temperature 60 °C ± 2 °C, 10 days
[11] = conditions of high temperature, high humidity after 10 days

Apparent solubility ([1]; pH value of Dilution 2.0): 7.86 µg/mL | Apparent solubility ([1]; pH value of Dilution 3.0): 48.12 µg/mL | Apparent solubility ([1]; pH value of Dilution 4.5): 24.18 µg/mL | Apparent solubility ([1]; pH value of Dilution 5.0): 9.99 µg/mL | Apparent solubility ([1]; pH value of Dilution 5.6): 16.71 µg/mL | Apparent solubility ([1]; pH value of Dilution 6.8): 12.53 µg/mL | Apparent solubility ([1]; pH value of Dilution 7.4): 10.71 µg/mL
SMILES: CCOc1cc([C@@H](CS(C)(=O)=O)N2C(=O)c3cccc(NC(C)=O)c3C2=O)ccc1OC [The crystal Form B of Apremilast, N-[2-[(1S)-1-(3-ethoxy-4-Methoxyphenyl)-2-(Methylsulfonyl)ethyl]-2,3-dihydro-1,3-dioxo-1H-isoindol-4-yl]-Acetamide, reference compound]

Related substances (Total impurities %) ([2]; 0 month): 0.08% | Related substances (Total impurities %) ([2]; 1 month): 0.10% | Related substances (Total impurities %) ([2]; 2 months): 0.14% | Related substances (Total impurities %) ([2]; 3 months): 0.16% | Related substances (Total impurities %) ([2]; 6 months): 0.18% | changes in the related substances [2, 4]: no significant changes | Related substances (Total impurities %) ([3]; Humidity 75%±5%, 0 day): 0.08% | Related substances (Total impurities %) ([3]; Humidity 75%±5%, 5 days): 0.08% | Related substances (Total impurities %) ([3]; Humidity 75%±5%, 10 days): 0.09% | Related substances (Total impurities %) ([3]; Humidity 90%±5%, 0 day): 0.08% | Related substances (Total impurities %) ([3]; Humidity 90%±5%, 5 days): 0.09% | Related substances (Total impurities %) ([3]; Humidity 90%±5%, 10 days): 0.11% | Related substances (Total impurities %) [3, 5]: 0.08% | Related substances (Total impurities %) [3, 6]: 0.10% | Related substances (Total impurities %) [3, 7]: 0.12% | Related substances (Total impurities %) [3, 8]: 0.08% | Related substances (Total impurities %) [3, 9]: 0.12% | Related substances (Total impurities %) [3, 10]: 0.14% | changes in the related substances [3, 11]: no significant changes | apparent solubility compared with the crystal form or the physical mixture comprising crystal Form B ([1]; at each pH): significantly higher | apparent solubility increases ([1]; in most pH conditions): more than 60% | solubility at 12 h ([1]; pH 3.0 acetate diluent, 37 °C, pH 3, aqueous buffer, pH value of Dilution 3.0): 66.8 µg/mL (≈ 145 µM) | solubility at 12 h ([1]; pH 4.5 diluent, 37 °C, pH 4.5, aqueous buffer, pH value of Dilution 4.5): 42.2 µg/mL (≈ 91.7 µM) | solubility at 12 h ([1]; pH 6.8 phosphate diluent, 37 °C, pH 6.8, aqueous buffer, pH value of Dilution 6.8): 23.2 µg/mL (≈ 50.4 µM) | solubility at 12 h ([1]; pH 7.4 phosphate diluent, 37 °C, pH 7.4, aqueous buffer, pH value of Dilution 7.4): 18.7 µg/mL (≈ 40.6 µM) | Apparent solubility ([1]; pH value of Dilution 2.0, listed as The amorphous form of Apremilast obtained in Example 1): 19.32 µg/mL | Apparent solubility ([1]; pH value of Dilution 5.0, listed as The amorphous form of Apremilast obtained in Example 1): 22.81 µg/mL | solubility at 12 h ([1]; phthalate buffer pH 5.6, 37 °C, pH 5.6, aqueous buffer, pH value of Dilution 5.6): 30 µg/mL (≈ 65.2 µM)
SMILES: CCOc1cc([C@@H](CS(C)(=O)=O)N2C(=O)c3cccc(NC(C)=O)c3C2=O)ccc1OC [amorphous Apremilast, N-[2-[(1S)-1-(3-ethoxy-4-Methoxyphenyl)-2-(Methylsulfonyl)ethyl]-2,3-dihydro-1,3-dioxo-1H-isoindol-4-yl]-Acetamide]
crystalline (XRPD) ([2]; 0 month): There is no peak of crystalline Apremilast | crystalline (XRPD) ([2]; 1 month): There is no peak of crystalline Apremilast | crystalline (XRPD) ([2]; 2 months): There is no peak of crystalline Apremilast | crystalline (XRPD) ([2]; 3 months): There is no peak of crystalline Apremilast | crystalline (XRPD) ([2]; 6 months): There is no peak of crystalline Apremilast | crystallization of Apremilast [2, 4]: no crystallization of Apremilast was observed | crystalline (XRPD) ([3]; Humidity 75%±5%, 0 day): There is no peak of crystalline Apremilast | crystalline (XRPD) ([3]; Humidity 75%±5%, 5 days): There is no peak of crystalline Apremilast | crystalline (XRPD) ([3]; Humidity 75%±5%, 10 days): There is no peak of crystalline Apremilast | crystalline (XRPD) ([3]; Humidity 90%±5%, 0 day): There is no peak of crystalline Apremilast | crystalline (XRPD) ([3]; Humidity 90%±5%, 5 days): There is no peak of crystalline Apremilast | crystalline (XRPD) ([3]; Humidity 90%±5%, 10 days): There is no peak of crystalline Apremilast | crystalline (XRPD) [3, 5]: There is no peak of crystalline Apremilast | crystalline (XRPD) [3, 6]: There is no peak of crystalline Apremilast | crystalline (XRPD) [3, 7]: There is no peak of crystalline Apremilast | crystalline (XRPD) [3, 8]: There is no peak of crystalline Apremilast | crystalline (XRPD) [3, 9]: There is no peak of crystalline Apremilast | crystalline (XRPD) [3, 10]: There is no peak of crystalline Apremilast | crystallization of Apremilast [3, 11]: no crystallization of Apremilast was observed
